In patent US20210355435A1, “CULTURE MEDIUM COMPRISING KETO ACIDS” (Evonik Operations GmbH, priority 2018, published 2021):

How the values were obtained:
[1] = system: CHO cells (subclone DG44); experiment: Antibody production in CHO cells with keto leucine instead of L-leucine; format: cell-based, Chinese hamster; conditions: keto leucine as calcium salt, reference normalized to 1.0
Protocol: (§1) Antibody producing chinese hamster ovary (CHO) cells (subclone DG44) were cultivated in shake flasks (125 ml or 250 ml with a culture volume of 50 ml or 100 ml respectively) in TC42/CHOMACS CD culture medium (TeutoCell AG) containing 8 mM L-glutamine. The culture medium was prepared by mixing two solutions. The first contained the conventional medium formulation (containing L-leucine and calcium chloride). In the second, the amino acid L-leucine in the culture medium was substituted by keto leucine (178 mg/l) as calcium salt in equimolar quantities. These solutions were mixed in different ratios. The growth of cells cultivated in the different mixtures was compared to cells cultivated in the conventional culture medium.
The concentration of antibody produced by the cells cultivated in the reference culture medium containing L-leucine (Reference) were normalized to 1.0.

[2] = system: CHO cells (subclone DG44); experiment: Growth of CHO cells in medium with keto leucine instead of L-leucine; format: cell-based, Chinese hamster; conditions: keto leucine as calcium salt instead of L-leucine, up to 178 mg/l, third passage
Protocol: as §1
A corresponds to cells cultivated in a culture medium containing 178 mg/L of keto leucine, B to a mixture containing 30% (v/v) of the keto leucine solution, C to a mixture containing 5% (v/v) of the keto leucine solution and a reference containing only L-leucine.

CC(C)CC(=O)C(=O)O [keto leucine, alpha-keto isocaproate]
antibody production with keto leucine instead of L-leucine [1]: L-leucine can be substituted | viable cell density versus reference medium with L-leucine [2]: slightly reduced
